# Laboratory results published in patent US20230085307A1, “PYRIDAZINONE COMPOUND AND HERBICIDE” (NISSAN CHEMICAL CORPORATION, priority 2019, published 2023).
# Legend:
# windgrass [1] = assay: Test Example 5: herbicidal effect by foliage application, plastic box (Table 20, symbol L); assay type: in vivo, windgrass (Apera spica-venti); conditions: foliage application
# Method in brief: (§1)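 Plants were sown into sterilized diluvial soil under about 1.5 cm cover and kept in a greenhouse at 25° C. to 30° C. Fourteen days on, foliage received an even spray of the diluted emulsion. Herbicidal or crop effect was judged three weeks afterwards.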
# southern crabgrass [2] = assay: Test Example 5: herbicidal effect by foliage application, plastic box (Table 20, symbol F); assay type: in vivo, southern crabgrass (Digitaria ciliaris); conditions: foliage application
# Method in brief: as §1
# chickweed [3] = assay: Test Example 5: herbicidal effect by foliage application, plastic box (Table 20, symbol P); assay type: in vivo, common chickweed (Stellaria media); conditions: foliage application
# Method in brief: as §1
# Italian ryegrass [4] = assay: Test Example 4: herbicidal effect by soil treatment (Table 19, symbol K); assay type: in vivo, Italian ryegrass (Lolium multiflorum); conditions: amount of applied herbicide 320 g/ha
# Method in brief: (§2)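 In this soil treatment, the formulated compound reached the seeds only through the soil: seeds were buried about 1.5 cm deep in sterilized diluvial soil, then the diluted emulsion was sprayed over the surface. After three weeks at 25° C. to 30° C. in a greenhouse, effects were graded on criteria from an earlier test.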
# barnyard grass [5] = assay: Test Example 4: herbicidal effect by soil treatment (Table 19, symbol H); assay type: in vivo, barnyard grass (Echinochloa crus-galli); conditions: amount of applied herbicide 320 g/ha
# Method in brief: as §2
# southern crabgrass [6] = assay: Test Example 4: herbicidal effect by soil treatment (Table 19, symbol F); assay type: in vivo, southern crabgrass (Digitaria ciliaris); conditions: amount of applied herbicide 320 g/ha
# Method in brief: as §2
# wild oat [7] = assay: Test Example 4: herbicidal effect by soil treatment (Table 19, symbol I); assay type: in vivo, wild oat (Avena fatua); conditions: amount of applied herbicide 320 g/ha
# Method in brief: as §2
# redroot pigweed [8] = assay: Test Example 4: herbicidal effect by soil treatment (Table 19, symbol N); assay type: in vivo, redroot pigweed (Amaranthus retroflexus); conditions: amount of applied herbicide 320 g/ha
# Method in brief: as §2
# false cleavers = assay: Test Example 4: herbicidal effect by soil treatment (Table 19, symbol Q); assay type: in vivo, false cleavers (Galium spurium); conditions: amount of applied herbicide 320 g/ha
# Method in brief: as §2
# green foxtail [9] = assay: Test Example 4: herbicidal effect by soil treatment (Table 19, symbol G); assay type: in vivo, green foxtail (Setaria viridis); conditions: amount of applied herbicide 320 g/ha
# Method in brief: as §2
# lambsquarters [10] = assay: Test Example 4: herbicidal effect by soil treatment (Table 19, symbol O); assay type: in vivo, lambsquarters (Chenopodium album); conditions: amount of applied herbicide 320 g/ha
# Method in brief: as §2
# velvetleaf [11] = assay: Test Example 5: herbicidal effect by foliage application, plastic box (Table 20, symbol M); assay type: in vivo, velvetleaf (Abutilon theophrasti); conditions: foliage application
# Method in brief: as §1
# persian speedwell [12] = assay: Test Example 4: herbicidal effect by soil treatment (Table 19, symbol R); assay type: in vivo, Persian speedwell (Veronica persica); conditions: amount of applied herbicide 320 g/ha
# Method in brief: as §2
# rice flat sedge = assay: Test Example 3: herbicidal effect by foliage application, Wagner pot (Table 18, symbol E); assay type: in vivo, rice flat sedge (Cyperus iria); conditions: amount of applied herbicide 320 g/ha
# Method in brief: (§3)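 Plants were sown in alluvial soil held under 0.1–0.5 cm standing water and grown 14 days in a greenhouse at 25–30 °C. An emulsifiable formulation, water-diluted to the set dose, was then sprayed onto the foliage, and effects were scored three weeks later using previously defined criteria.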
# windgrass [13] = assay: Test Example 4: herbicidal effect by soil treatment (Table 19, symbol L); assay type: in vivo, windgrass (Apera spica-venti); conditions: amount of applied herbicide 320 g/ha
# Method in brief: as §2
# chickweed [14] = assay: Test Example 4: herbicidal effect by soil treatment (Table 19, symbol P); assay type: in vivo, common chickweed (Stellaria media); conditions: amount of applied herbicide 320 g/ha
# Method in brief: as §2
# Italian ryegrass [15] = assay: Test Example 5: herbicidal effect by foliage application, plastic box (Table 20, symbol K); assay type: in vivo, Italian ryegrass (Lolium multiflorum); conditions: foliage application
# Method in brief: as §1
# barnyard grass [16] = assay: Test Example 3: herbicidal effect by foliage application, Wagner pot (Table 18, symbol H); assay type: in vivo, barnyard grass (Echinochloa crus-galli); conditions: amount of applied herbicide 320 g/ha
# Method in brief: as §3
# green foxtail [17] = assay: Test Example 5: herbicidal effect by foliage application, plastic box (Table 20, symbol G); assay type: in vivo, green foxtail (Setaria viridis); conditions: foliage application
# Method in brief: as §1
# lambsquarters [18] = assay: Test Example 5: herbicidal effect by foliage application, plastic box (Table 20, symbol O); assay type: in vivo, lambsquarters (Chenopodium album); conditions: foliage application
# Method in brief: as §1
# blackgrass [19] = assay: Test Example 5: herbicidal effect by foliage application, plastic box (Table 20, symbol J); assay type: in vivo, blackgrass (Alopecurus myosuroides); conditions: foliage application
# Method in brief: as §1
# blackgrass [20] = assay: Test Example 4: herbicidal effect by soil treatment (Table 19, symbol J); assay type: in vivo, blackgrass (Alopecurus myosuroides); conditions: amount of applied herbicide 320 g/ha
# Method in brief: as §2
# redroot pigweed [21] = assay: Test Example 5: herbicidal effect by foliage application, plastic box (Table 20, symbol N); assay type: in vivo, redroot pigweed (Amaranthus retroflexus); conditions: foliage application
# Method in brief: as §1
# velvetleaf [22] = assay: Test Example 4: herbicidal effect by soil treatment (Table 19, symbol M); assay type: in vivo, velvetleaf (Abutilon theophrasti); conditions: amount of applied herbicide 320 g/ha
# Method in brief: as §2
# barnyard grass [23] = assay: Test Example 5: herbicidal effect by foliage application, plastic box (Table 20, symbol H); assay type: in vivo, barnyard grass (Echinochloa crus-galli); conditions: foliage application
# Method in brief: as §1
# Chinese sprangletop = assay: Test Example 3: herbicidal effect by foliage application, Wagner pot (Table 18, symbol D); assay type: in vivo, chinese sprangletop (Leptochloa chinensis); conditions: amount of applied herbicide 320 g/ha
# Method in brief: as §3
# persian speedwell [24] = assay: Test Example 5: herbicidal effect by foliage application, plastic box (Table 20, symbol R); assay type: in vivo, Persian speedwell (Veronica persica); conditions: foliage application
# Method in brief: as §1
# wild oat [25] = assay: Test Example 5: herbicidal effect by foliage application, plastic box (Table 20, symbol I); assay type: in vivo, wild oat (Avena fatua); conditions: foliage application
# Method in brief: as §1
# [26] = AAH 320 g/ha, evaluated three weeks after application
# [27] = 320 g/ha, three weeks after application
Compound,"herbicidal effect, K: Italian ryegrass (Italian ryegrass [4])","herbicidal effect, H: barnyard grass (barnyard grass [5])","herbicidal effect, F: southern crabgrass (southern crabgrass [6])","herbicidal effect, I: wild oat (wild oat [7])","herbicidal effect, N: redroot pigweed (redroot pigweed [8])","herbicidal effect, Q: false cleavers (false cleavers)","herbicidal effect, G: green foxtail (green foxtail [9])","herbicidal effect, O: lambsquarters (lambsquarters [10])","herbicidal effect, R: persian speedwell (persian speedwell [12])",herbicidal effect on E: rice flat sedge (rice flat sedge),"herbicidal effect, L: windgrass (windgrass [13])","herbicidal effect, P: chickweed (chickweed [14])",herbicidal effect on H: barnyard grass (barnyard grass [16]),"herbicidal effect, J: blackgrass (blackgrass [20])","herbicidal effect, M: velvetleaf (velvetleaf [22])",herbicidal effect on D: Chinese sprangletop (Chinese sprangletop),also measured
CCn1nc(C)c(O)c(-c2c(-c3ccccc3OC)sc3ccc(F)cc23)c1=O [2-404],0 (Herbicidal rate of 5% or less (almost no effect)),0 (Herbicidal rate of 5% or less (almost no effect)),0 (Herbicidal rate of 5% or less (almost no effect)),0 (Herbicidal rate of 5% or less (almost no effect)),3 (Herbicidal rate of 40% or more and less than 70%),0 (Herbicidal rate of 5% or less (almost no effect)),0 (Herbicidal rate of 5% or less (almost no effect)),3 (Herbicidal rate of 40% or more and less than 70%),0 (Herbicidal rate of 5% or less (almost no effect)),3 (Herbicidal rate of 40% or more and less than 70%),0 (Herbicidal rate of 5% or less (almost no effect)),0 (Herbicidal rate of 5% or less (almost no effect)),3 (Herbicidal rate of 40% or more and less than 70%),0 (Herbicidal rate of 5% or less (almost no effect)),0 (Herbicidal rate of 5% or less (almost no effect)),0 (Herbicidal rate of 5% or less (almost no effect)),"L: windgrass, herbicidal effect (criteria 0-5) (windgrass [1]; [26]): 0 (Herbicidal rate of 5% or less (almost no effect)); F: southern crabgrass, herbicidal effect (criteria 0-5) (southern crabgrass [2]; [26]): 2 (Herbicidal rate of 20% or more and less than 40%); P: chickweed, herbicidal effect (criteria 0-5) (chickweed [3]; [26]): 5 (Herbicidal rate of 90% or more (almost completely withered)); M: velvetleaf, herbicidal effect (criteria 0-5) (velvetleaf [11]; [26]): 3 (Herbicidal rate of 40% or more and less than 70%); K: Italian ryegrass, herbicidal effect (criteria 0-5) (Italian ryegrass [15]; [26]): 0 (Herbicidal rate of 5% or less (almost no effect)); G: green foxtail, herbicidal effect (criteria 0-5) (green foxtail [17]; [26]): 1 (Herbicidal rate of 5% or more and less than 20%); O: lambsquarters, herbicidal effect (criteria 0-5) (lambsquarters [18]; [26]): 3 (Herbicidal rate of 40% or more and less than 70%); J: blackgrass, herbicidal effect (criteria 0-5) (blackgrass [19]; [26]): 0 (Herbicidal rate of 5% or less (almost no effect)); N: redroot pigweed, herbicidal effect (criteria 0-5) (redroot pigweed [21]; [26]): 5 (Herbicidal rate of 90% or more (almost completely withered)); H: barnyard grass, herbicidal effect (criteria 0-5) (barnyard grass [23]; [26]): 3 (Herbicidal rate of 40% or more and less than 70%); R: persian speedwell, herbicidal effect (criteria 0-5) (persian speedwell [24]; [26]): 5 (Herbicidal rate of 90% or more (almost completely withered)); I: wild oat, herbicidal effect (criteria 0-5) (wild oat [25]; [26]): 0 (Herbicidal rate of 5% or less (almost no effect))"
C=CCSc1ccc(-c2sc3ccc(F)cc3c2-c2c(O)c(C)nn(C)c2=O)cc1 [2-422],0 (Herbicidal rate of 5% or less (almost no effect)),1 (Herbicidal rate of 5% or more and less than 20%),1 (Herbicidal rate of 5% or more and less than 20%),0 (Herbicidal rate of 5% or less (almost no effect)),5 (Herbicidal rate of 90% or more (almost completely withered)),0 (Herbicidal rate of 5% or less (almost no effect)),2 (Herbicidal rate of 20% or more and less than 40%),3 (Herbicidal rate of 40% or more and less than 70%),0 (Herbicidal rate of 5% or less (almost no effect)),5 (Herbicidal rate of 90% or more (almost completely withered)),0 (Herbicidal rate of 5% or less (almost no effect)),0 (Herbicidal rate of 5% or less (almost no effect)),5 (Herbicidal rate of 90% or more (almost completely withered)),0 (Herbicidal rate of 5% or less (almost no effect)),1 (Herbicidal rate of 5% or more and less than 20%),3 (Herbicidal rate of 40% or more and less than 70%),"L: windgrass, herbicidal effect grade (windgrass [1]; [27]): 5 (Herbicidal rate of 90% or more (almost completely withered)); F: southern crabgrass, herbicidal effect grade (southern crabgrass [2]; [27]): 2 (Herbicidal rate of 20% or more and less than 40%); P: chickweed, herbicidal effect grade (chickweed [3]; [27]): 5 (Herbicidal rate of 90% or more (almost completely withered)); M: velvetleaf, herbicidal effect grade (velvetleaf [11]; [27]): 5 (Herbicidal rate of 90% or more (almost completely withered)); K: Italian ryegrass, herbicidal effect grade (Italian ryegrass [15]; [27]): 5 (Herbicidal rate of 90% or more (almost completely withered)); G: green foxtail, herbicidal effect grade (green foxtail [17]; [27]): 5 (Herbicidal rate of 90% or more (almost completely withered)); O: lambsquarters, herbicidal effect grade (lambsquarters [18]; [27]): 5 (Herbicidal rate of 90% or more (almost completely withered)); J: blackgrass, herbicidal effect grade (blackgrass [19]; [27]): 4 (Herbicidal rate of 70% or more and less than 90%); N: redroot pigweed, herbicidal effect grade (redroot pigweed [21]; [27]): 5 (Herbicidal rate of 90% or more (almost completely withered)); H: barnyard grass, herbicidal effect grade (barnyard grass [23]; [27]): 5 (Herbicidal rate of 90% or more (almost completely withered)); R: persian speedwell, herbicidal effect grade (persian speedwell [24]; [27]): 5 (Herbicidal rate of 90% or more (almost completely withered)); I: wild oat, herbicidal effect grade (wild oat [25]; [27]): 5 (Herbicidal rate of 90% or more (almost completely withered))"
